From patent publication US7335640B2, “Administration of hypocretin-1 for treatment of narcolepsy” (The Regents of the University of California, priority 1999, dated 2008)
Entries after “also recorded” stand apart in the source; their conditions may differ.

What was measured:
[1] = in vivo; cited from earlier work
[2] = system: genetically narcoleptic Doberman pinschers; assay: health and behavior observed throughout the study; assay type: in vivo
Procedure: (§1) Six genetically narcoleptic Doberman pinschers (5 males and 1 female) served as subjects. We analyzed the effect of systemically administered Hcrt-1 on cataplexy with a modified food elicited cataplexy test (FECT). The effect of Hcrt-1 administration on sleep organization was determined using polygraph recording. The effect of Hcrt-1 administration on activity levels and the duration of sleep-waking states over the 24-hr period was determined with actigraphy.
(§2) One to 4 μg/kg of Hcrt-1 (orexin-A, #003-30, Phoenix Pharmaceuticals, Mountain View, Calif.) dissolved in normal saline (100 μg in 2 ml) was administered through the cephalic vein using a glass syringe. The glass syringe was pre-soaked in 1% BSA, rinsed in Milli-Q water, then dried at 60° C. prior to use. This treatment combined with the large volume of the dilutent used minimizes problems caused by the “stickiness” of the peptide. On control days, saline was administered in the same manner. Hcrt-1 or control injections were administered daily at the same time.

[3] = Hcrt-1 levels by solid-phase RIA, narcoleptic dog; assay type: in vivo
Procedure: In order to assess the effect of the intravenous Hcrt-1 injection on central levels of the compound, cerebrospinal fluid (CSF) and blood serum was collected and analyzed after infusion of Hcrt-1. In these studies, Hcrt-1 was injected intravenously as in the behavioral studies into two Doberman pinschers, one narcoleptic, and one control that had been anesthetized with Fluothane anesthesia. Saline was injected in a third dog, a non-narcoleptic control. Prior to injection and at 15, 30 min and one hour intervals after injection, CSF was collected from the cisterna magna with a spinal needle and then quickly frozen at −20. Hypocretin was extracted from 0.5-1 ml samples with reverse a phase SEP-PAK C18 column. An ^125I Hcrt-1 radioimmunoassay was used to measure levels in reconstituted aliquots (described below).
(§3) Prior to RIA, Hcrt-1 is extracted from the CSF or plasma sample. This is achieved by acidification of the sample with 1% TFA followed by loading onto a C18 Sep-Column, washing the column with 1% TFA, and eluting the peptide with 1% TFA/40% acetonitrile. The eluant is then dried down and re-suspended in RIA buffer ready for assay.
The 96-well plates are first coated with protein A(Sigma, binding capacity 9-11 mg of human IgG per mg) by adding 0.1 μg in 100 μl of 0.1M sodium bicarbonate, pH9, to each well. The plates are normally prepared in advance and can be stored for several weeks at 4° C. when tightly wrapped to prevent drying out. However, it is possible to use them after approximately 2 h incubation at room temperature. The protein A solution is then discarded and the plates washed 3 times in a wash buffer consisting of 0.15M K2HPO4, 0.2 mM ascorbic acid, 0.2% Tween 20, pH7.5 and blotted on a paper towel. Next, 200 μl of assay buffer (same as wash buffer plus 0.1% gelatin) is pipetted into each well and left at room temperature for 30 min. This step is included in an attempt to remove protein A bound with only low affinity to the plate which might otherwise dissociate at later stages in the assay thereby removing bound antibody and tracer. After dumping this solution and blotting, 50 μl of the appropriate concentration of antibody diluted with assay buffer is added to all but 4 wells. To these 4 wells are added assay buffer alone to provide an index of non-specific binding. The antibody dilution used is that which is pre-determined to produce 20-30% maximum binding in the assay. The wells are then left for 2 h at room temperature. […]
A 2 h pre-incubation period at room temperature then follows. […] Subsequently the contents of the wells are discarded and the wells washed 3 times with wash buffer and blotted prior to addition of Microscint 20 and counting in the Top Count plate reader. […]

[4] = system: genetically narcoleptic Doberman pinschers; assay: actigraphy of sleep-wake periods and activity level; assay type: in vivo
Procedure: as §1, §2
The effects of Hcrt-1 on sleep-wake periods were monitored continuously for 24 hrs/day with collar mounted actigraphs (Actiwatch, Mini Mitter Inc, Sundriver, Oreg.) while the animals remained in their home dog runs. Actigraphs were secured to a neck collar that was placed on the dogs throughout the period of study. Data were downloaded to a PC through an inductively coupled Actiwatch reader and further analyzed by a program of our design. The program could integrate total numbers of movements above a preset amplitude for a measurement of total level of activity in 5 minutes epochs. For analysis of sleep state, actigraphs were first calibrated by placing them on an animal instrumented for conventional polygraphic recording. A threshold was determined for discriminating polygraphically defined waking and sleep in 30-sec epochs. The durations of sleep periods were then counted and tabulated by computer. The sleep-wake bouts measured by actigraph correlated well with hypnograms obtained from polygraphic recording (r=0.84, p<0.001).
(§4) Data were analyzed with ANOVA, followed by post-hoc comparisons using Newman-Keuls tests. Bonferroni t-tests were done to compare the effect of Hcrt-1 on sleep stages measured with polygraphic recording. One sample t-tests were performed to test the significance of number of cataplectic attacks and FECT time (expressed as a percentage of baseline) after Hcrt-1 within each dose.
Actigraph measurements were used to calculate the duration of sleep and waking states for the nights following injection. First, comparisons of actigraphic measurements and polygraphically recorded sleep states were made and used to determine thresholds for distinguishing sleep and wake periods. Then wake and sleep state periods were quantified starting 2 hrs following administration. […] These effects lasted for more than 24 hrs (p<0.01, F=5.56, df=3, 15 and p<0.002, F=8.58, df=3, 15 for sleep and wake periods respectively). The frequency of sleep and wake bouts was reduced (p<0.05, F=3.35, df=3, 15 and p<0.05, F=3.40, df=3, 15, respectively) (FIG. 2b, 2c).

[5] = Hcrt-1 levels by solid-phase RIA, normal human; assay type: in vivo
Procedure: as §3
The 96-well plates are first coated with protein A(Sigma, binding capacity 9-11 mg of human IgG per mg) by adding 0.1 μg in 100 μl of 0.1M sodium bicarbonate, pH9, to each well. The plates are normally prepared in advance and can be stored for several weeks at 4° C. when tightly wrapped to prevent drying out. However, it is possible to use them after approximately 2 h incubation at room temperature. The protein A solution is then discarded and the plates washed 3 times in a wash buffer consisting of 0.15M K2HPO4, 0.2 mM ascorbic acid, 0.2% Tween 20, pH7.5 and blotted on a paper towel. Next, 200 μl of assay buffer (same as wash buffer plus 0.1% gelatin) is pipetted into each well and left at room temperature for 30 min. This step is included in an attempt to remove protein A bound with only low affinity to the plate which might otherwise dissociate at later stages in the assay thereby removing bound antibody and tracer. After dumping this solution and blotting, 50 μl of the appropriate concentration of antibody diluted with assay buffer is added to all but 4 wells. To these 4 wells are added assay buffer alone to provide an index of non-specific binding. The antibody dilution used is that which is pre-determined to produce 20-30% maximum binding in the assay. The wells are then left for 2 h at room temperature.
Standard solutions of Hcrt-1 are prepared in quadruplet ranging from 0.1 to 50 fmol in 50 μl. These standards (plus four blanks) are made up in RIA buffer. All dilutions are carried out in polypropylene tubes to minimize loss due to ‘sticking’. The contents of each tube are then transferred to the assay wells following dumping of the antibody solution, washing 3 times with wash buffer and blotting.
A 2 h pre-incubation period at room temperature then follows. At the end of this time 50 μl of assay buffer containing approximately 5,000 CPM of ^125I-labeled tracer peptide is added to each well and the plate left to incubate overnight at 4° C. (this final incubation step can be reduced to approx. 2 h with only slight loss of sensitivity). Subsequently the contents of the wells are discarded and the wells washed 3 times with wash buffer and blotted prior to addition of Microscint 20 and counting in the Top Count plate reader. Results from the Solid-Phase Radioimmunoassay (RIA) for Hypocretin (Hcrt-1) are shown below in Table I: […]

[6] = system: genetically narcoleptic Doberman pinschers; assay: polygraphic recording of sleep-wake parameters; assay type: in vivo
Procedure: as §1
One to 4 μg/kg of Hcrt-1 (orexin-A, #003-30, Phoenix Pharmaceuticals, Mountain View, Calif.) dissolved in normal saline (100 μg in 2 ml) was administered through the cephalic vein using a glass syringe. The glass syringe was pre-soaked in 1% BSA, rinsed in Milli-Q water, then dried at 60° C. prior to use. This treatment combined with the large volume of the dilutent used minimizes problems caused by the “stickiness” of the peptide. […]
Polygraphic recording. […] Polygraphic variables were recorded for 4 hrs after Hcrt-1 (3 μg/kg) or saline injection.
as §4

REM sleep = conditions: intracerebroventricular administration; cited from earlier work
Hcrt-1 antiserum = assay: solid-phase radioimmunoassay (RIA) for Hcrt-1; assay type: binding; conditions: competition with 125I-labeled Hcrt-1
Text: Furthermore, sensitivity is increased over that obtained with more traditional methods using identical antibodies and assay volumes. In this system, the antibody is immobilized onto the surface of 96-well Immulon II-coated plates (Dynatech) through attachment of the constant region of the immunoglobulin (Ig) molecule to the purified bacterial wall protein-protein A (the use of this protein greatly increases the capacity of the wells for antibody thereby avoiding the necessity for antibody purification). […] After a pre-determined incubation period separation of bound from free tracer peptide is accomplished by simply pouring out the contents of the wells and washing with buffer. For example, the individual wells of a 96-well plate containing Ab-bound tracer peptide are then physically separated and counted in a gamma counter. […]
The Hcrt-1, iodinated Hcrt-1, and Hcrt-1 antiserum were obtained from Phoenix Pharmaceuticals, Inc. (530 Harbor Blvd, Belmont, Calif.). […] This enables direct reading of radioactivity in a Top Count plate reader (Packard) without the requirement to separate out individual wells.
The 96-well plates are first coated with protein A(Sigma, binding capacity 9-11 mg of human IgG per mg) by adding 0.1 μg in 100 μl of 0.1M sodium bicarbonate, pH9, to each well. […] The antibody dilution used is that which is pre-determined to produce 20-30% maximum binding in the assay. […]

[7] = system: genetically narcoleptic Doberman pinschers; assay: modified food elicited cataplexy test (FECT); assay type: in vivo; conditions: for cataplexy (number of cataplectic attacks): FECT 4 min after administration; for FECT time (time to consume the food) / cataplexy (number of cataplectic attacks / falls): vs saline control
Procedure: as §1, §2
FECT was done by introducing a bowl of soft food (Pedigree, by Kalkan) in the home cage and counting the number of cataplectic attacks (including hind limb collapse and total cataplexies in which all four limbs collapse and the whole body contacts the floor) and total time required to eat the food (FECT time). All the FECTs began 4 min after the administration of Hcrt-1 or saline.
as §4

[8] = 3 μg/kg, representative actigraph record
[9] = single dose, from 2 hrs after administration

## iodinated Hcrt-1: iodinated Hcrt-1 reported in the literature to pass the BBB (QPLPDCCRQKTCSCRLYELLHGAGNHAAGILTL; Orexin-A iodinated; UniProt O43612 34-66, looked up)
[1]
  passage of the BBB: passes the BBB

## Hcrt-1: Hcrt-1 (orexin-A, #003-30, Phoenix Pharmaceuticals) peptide dissolved in normal saline (QPLPDCCRQKTCSCRLYELLHGAGNHAAGILTL; Orexin-A; UniProt O43612 34-66, looked up)
[2]; period of cataplexy suppression after repeated doses
  feeding / rate of food consumption: normal feeding during FECTs; also recorded: consumed their food at a normal rate
[2]; throughout the study
  abnormal behaviors: no grooming, “wet dog shakes” or other abnormal behaviors
  general health of the dogs: excellent health
[3]; Blood serum
  Mean level: 0.011 nM
  Range in levels: 5 to 16 fmol/mL
[3]; Cerebrospinal fluid
  Mean level: 0.053 nM
  Range in levels: 26 to 140 fmol/mL
[4]; 3 μg/kg, after injection, vs saline
  motor activity: increased motor activity; also recorded: increase of motor activity was statistically significant at 0-30 and 30-60 minutes
[4]; [8]
  onset of increase in motor activity after injection: ≤ 5 min
  persistence of increase in motor activity: 60 min
[4]; periods of cataplexy suppression following repeated doses, vs baseline
  sleep consolidation (sleep bout length): consolidated (increased sleep bout length)
[4]; single dose
  frequency of sleep bouts: reduced; also recorded: decrease in frequency
  frequency of wake bouts: reduced
  how long the effects on sleep and wake period duration lasted: more than 24 hrs
[4]; [9]
  mean duration of sleep periods (sleep bout duration): increased; also recorded: significant increase in sleep bout duration
  mean duration of wake periods: increased
[4]; vs pre-drug levels
  total duration of sleep: increased after Hcrt-1 as compared to pre-drug levels, but not significantly
[5]; Blood serum
  Mean level: 0.01 nM
  Range in levels: 8 to 14 fmol/mL
[5]; Cerebrospinal fluid
  Mean level: 0.062 nM
  Range in levels: 21 to 203 fmol/mL
[6]; 3 μg/kg, 4 hr post-injection period, vs saline
  REM sleep: significant reduction; also recorded: significant decrease in REM sleep
[6]; after Hcrt-1 administration
  nonREM sleep: without change
REM sleep
  REM sleep: selective suppression of REM sleep
Hcrt-1 antiserum
  IC50 value for this Hcrt-1 assay: 2 fmol
[7]; 1 μg/kg intravenous
  cataplexy (number of cataplectic attacks): did not produce any change in cataplexy; also recorded: did not affect cataplexy
[7]; 2 μg/kg intravenous
  cataplexy (number of cataplectic attacks): did not produce any change in cataplexy; also recorded: did not affect cataplexy
[7]; 3 μg/kg intravenous
  FECT time (time to consume the food): reduction in the FECT time; also recorded: significant decrease
  cataplexy (number of cataplectic attacks / falls): reduction in cataplexy; also recorded: significant decrease in the number of falls
[7]; 4 μg/kg intravenous
  FECT time (time to consume the food): significantly increased the FECT time
  cataplexy (number of cataplectic attacks / falls): significantly increased the severity of cataplexy; also recorded: significantly increased the number of falls
[7]; 1 to 4 μg/kg intravenous, ANOVA
  effect on cataplexy across doses: significant effect on cataplexy in a dose dependent manner; also recorded: dose dependent change in cataplexy
[7]; after 3-5 doses, two of the 3 dogs treated
  period without any cataplexy after repeated doses: ≥ 3 days
[7]; after repeated doses
  time taken to finish the food during the period without cataplexy: significantly reduced
[7]; after repeated doses, both dogs
  period over which severity of cataplexy returned to pretreatment levels: 3 to 4 days
[7]; five doses, more severely affected dog
  cataplexy after five doses (FIG. 1D): complete suppression of cataplexy during the FECT observed on 3 tests given every other day over a 6 day period
[7]; three doses, one dog
  cataplexy after three doses (FIG. 1C): complete suppression of cataplexy for three consecutive days
